Values quoted from earlier work as cited in patent publication US20130236944A1, “METHODS FOR THE INACTIVATION OF ANTIBIOTICS” (priority 2011, published 2013).

Conditions: after 180 days; Hektoen et al. (1995)

SMILES | degradation in marine sediments
CCn1cc(C(=O)O)c(=O)c2cc3c(cc21)OCO3 [oxolanic acid] | no degradation
CN(C)[C@@H]1C(O)=C(C(N)=O)C(=O)[C@@]2(O)C(O)=C3C(=O)c4c(O)cccc4[C@@](C)(O)[C@H]3[C@H](O)[C@@H]12 [oxytetracycline] | no degradation
